Assays:
Type in all cases: cell-based
PEO1 cells [1] = test: Reversal of RNR inhibition by supplementing deoxyribonucleosides (MTS); conditions: addition of dA plus dG, or all dNs, 72 hr
Experimental: FIG. 2, comprising FIG. 2A through FIG. 2F, depicts representative results of follow-up assays of in silico hit compounds in PEO1 and PEO4 cells. FIG. 2A depicts representative results of cytotoxicity assays on selected 25 in silico hit compounds in PEO1 and PEO4 cells. Cells were plated for 24 hr and then treated with 50 μM compounds for 72 hr. For a positive control, cells were treated with 1 μM triapine for 72 hr. The percentage of cell survival was determined by the MTS cytotoxicity assay. […] Cells were treated with 50 μM compounds or 1 μM triapine for 24 hr. During the last hour, cells were pulse-labeled with EdU, stained with the Click-iT EdU Alexa Fluor 488 Assay Kit, counterstained with 7-AAD, and subsequently analyzed by flow cytometry. EdU-positive cells were gated to determine the percentage of the S phase cell population. […] During the last hour, cells were pulse-labeled with EdU, stained with the Click-iT EdU Alexa Fluor 488 Assay Kit, counterstained with 7-AAD, and subsequently analyzed by flow cytometry. […] The percentages of DNA synthesis in cells treated with each of 10 compounds and triapine relative to the DMSO-treated control is calculated and shown. […] Cells were extracted with 65% methanol for determination of each of dNTPs expressed as pmole/10^6 cells. […] The percentage of cell survival was determined by the MTS cytotoxicity assay. […]

PEO1 cells [2] = test: MTS cytotoxicity assay, sensitization to olaparib, PEO1; conditions: 30 μM, olaparib 72 hr
Experimental: (§1) Cells were pre-treated with 30 μM DB4 for 1 hr and then treated with various concentrations of olaparib for 72 hr. Cell survival was determined by MTS cytotoxicity assay. Data are means±SD (N=3-4). […] EOB calculation was used to quantify the synergy of the combination of DB4 and various concentrations of olaparib in PEO1 or PEO4 cells as shown in FIG. 8A. EOB>0, synergism; EOB=0, additivity; EOB<0, antagonism. […] Cells were pre-treated with 30 μM DB4-F for 1 hr and then treated with various concentrations of olaparib for 72 hr. Cell survival was determined by MTS cytotoxicity assay. Data are means±SD (N=3-4). […] EOB calculation was used to quantify the synergy of the combination of DB4-F and various concentrations of olaparib in PEO1 or PEO4 cells as shown in FIG. 8B. EOB>0, synergism; EOB=0, additivity; EOB<0, antagonism. […] Cell survival was determined by MTS cytotoxicity assay. […] Caspase 3/7 activity was expressed as RLU per μg/μl protein. […] Caspase 3/7 activity was expressed as RLU per μg/μl protein. […] Cells were treated and caspase 3/7 activity was measured as described in FIG. 8G and FIG. 8H.
(§2) It was also examined whether DB4 sensitized BRCA-wild type EOC cells to a PARP inhibitor. BRCA2-mutated PEO1 and BRCA2-wild type PEO4 cells were treated with DB4 at 30 μM in combination with various concentrations of olaparib and cell survival was determined. […]

PEO4 cells = test: MTS cytotoxicity assay, sensitization to olaparib, PEO4; conditions: 30 μM, olaparib 72 hr
Experimental: as §1, §2

SMILES	reversal of inhibitory effects on cell survival by dNs (PEO1 cells [1])	sensitization to olaparib (cell survival) (PEO1 cells [2])	sensitization to olaparib (cell survival) (PEO4 cells)
NC(=S)NN=Cc1ncccc1N [triapine, 3-aminopyridine-2-carboxaldehyde-thiosemicarbazone, reference compound]	partially reversed	–	–
C=CCn1c(SCc2cccc(Cl)c2)nnc1C1CCN(Cc2nc3ccccc3s2)CC1 [DB4, 2-[(4-{4-allyl-5-[(3-chlorobenzyl)thio]-4H-1,2,4-triazol-3-yl}-1-piperidinyl)methyl]-1,3-benzothiazole]	partially reversed	minimal effects	effectively sensitized

— patent publication US20240239786A1, “COMPOSITIONS AND METHODS FOR THE TREATMENT AND PREVENTION OF CANCER” (Yale University, priority 2021, published 2024)
